{"source": "patent US4083947A", "about": "“Organ visualization” (The Radiochemical Centre Limited, priority 1975, dated 1978)", "key": {"[1]": {"settings": "compared with 19-iodocholesterol-131I; cited from earlier work"}, "[2]": {"settings": "cited from earlier work"}, "[3]": {"settings": "cited from earlier work", "remark": "listed apart in the source"}, "[4]": {"settings": "cited from earlier work", "remark": "listed apart in the source"}, "[5]": {"assay": "Adrenal scanning/visualization in patients, comparison of 75Se compound with 19-iodocholesterol-131I", "type": "in vivo, humans", "settings": "for time after injection at which scans could be taken: p.i.; for dose giving equally good adrenal scans: per kg body weight, adrenal cortex adenomas or hyperplasia", "method": "(§1) Two patients with Cushing Syndrome were injected intravenously with 500μCi of 6β-methylselenomethyl-19-norcholest-5(10)-en-3β-ol-^75 Se formulated in normal saline stabilized with polysorbate. Repeated gamma camera scans and whole body-, urine- and blood measurements were made during a period of two weeks post injection. In one patient a maximum uptake of 17μCi in the left adrenal region was measured, the removed adrenal cortex adenoma, weight 66 g, containing 15μCi of ^75 Se.\nFurthermore, the ^75 Se compound allowed scans to be taken at an earlier point of time after injection than was the case with 19-iodocholesterol-^131 I (2-3 days in contrast to 6-10 days p.i.)."}, "[6]": {"assay": "Tissue distribution of selenium-75-labelled sterols in rats, sixth day post-injection", "type": "in vivo, rats of the C.F.Y. strain", "settings": "tail vein, dose: 1, 7: 40 μCi, 6: 50 μCi, 3: 30 μCi, 4: 1.5 μCi, 5: 10 μCi, 8: 6.3 μCi", "method": "The tissue distribution and target to non-target concentration ratios for seven compounds were studied in male and female rats (150-180 g) of the C.F.Y. strain. Each compound (in a volume of 0.3ml) was injected via the tail vein into two male and two female rats. The animals were then housed in separate metabolism cages prior to sacrifice and dissecting on the sixth day post-injection."}, "[7]": {"assay": "Tissue distribution in a female dog, 6th day post-injection", "type": "in vivo", "method": "250μCi of 6β-methylselenomethyl-19-norcholest-5(10)-en-[…]-^75 Se was intravenously injected into a female dog (13.7 kg). The dog was housed in a metabolism cage for the daily collection of urine and faeces. On the 6th day post-injection the animal was sacrificed (i.v. sodium pento-barbitone)and tissue and organ samples collected. The weighed samples were then assayed for radioactive content.\nThe resulting tissue distribution (expressed in terms of % dose kg/g) is tabulated below: […]"}, "[8]": {"assay": "Adrenal uptake of 75Se in patients with Cushing Syndrome (gamma camera scans)", "type": "in vivo, humans", "method": "as §1"}, "[9]": {"settings": "250μCi intravenous, female dog, 6th day"}, "[10]": {"settings": "250μCi intravenous, female dog, daily collection to 6th day"}}, "note": "Like-named read-outs stand apart in the source and are kept apart here.", "data": [{"compound": "CC(C)CCC[C@@H](C)[C@H]1CC[C@H]2[C@@H]3C[C@@H](C[131I])C4=C(CC[C@H](O)C4)[C@H]3CC[C@]12C", "note": "[^131 I-iodinated rearranged product, 6β-iodomethyl-19-norcholest-5(10)-en-3β-ol]", "values": [{"measurement": "effectiveness as adrenal scanning agent", "setting": "[1]", "result": "far more effective adrenal scanning agent than 19-iodocholesterol-^131 I"}]}, {"compound": "CC(C)CCC[C@@H](C)[C@H]1CC[C@H]2[C@@H]3CC=C4C[C@@H](O)CC[C@]4(C[131I])[C@H]3CC[C@]12C", "note": "[19-iodocholesterol-^131 I]", "values": [{"measurement": "concentration in / uptake into human adrenal glands", "setting": "[2]", "result": "concentrate in the adrenal glands"}, {"measurement": "concentration in rat adrenal tissue", "setting": "[3]", "result": "concentrate in the adrenal glands"}, {"measurement": "concentration in adrenal glands of dogs", "setting": "[4]", "result": "concentrate in the adrenal glands"}, {"measurement": "time after injection at which scans could be taken", "setting": "[5]", "result": "6 to 10", "unit": "days"}, {"measurement": "dose giving equally good adrenal scans", "setting": "[5]", "result": "10-20 μCi/kg"}]}, {"compound": "C[75Se]C[C@@H]1C[C@@H]2[C@H](CC[C@]3(C)[C@@H]([C@H](C)CCCC(C)C)CC[C@@H]23)C2=C1C[C@@H](O)CC2", "note": "[Example 1, 6β-methylselenomethyl-19-norcholest-5(10)-en-3β-ol-^75 Se]", "values": [{"measurement": "% dose kg./g. in Ovaries", "setting": "[6]; female rats", "result": 2.356, "unit": "% dose kg./g."}, {"measurement": "% dose kg./g. in Adrenals", "setting": "[6]; male and female rats", "result": 9.885, "unit": "% dose kg./g."}, {"measurement": "% dose kg./g. in Blood", "setting": "[6]; male and female rats", "result": 0.024, "unit": "% dose kg./g."}, {"measurement": "% dose kg./g. in Kidneys", "setting": "[6]; male and female rats", "result": 0.116, "unit": "% dose kg./g."}, {"measurement": "% dose kg./g. in Liver", "setting": "[6]; male and female rats", "result": 0.054, "unit": "% dose kg./g."}, {"measurement": "% dose kg./g. in Muscle", "setting": "[6]; male and female rats", "result": 0.023, "unit": "% dose kg./g."}, {"measurement": "% dose kg./g. in Testes", "setting": "[6]; male rats", "result": 0.044, "unit": "% dose kg./g."}, {"measurement": "Concentration Ratio; Adrenals: Kidneys", "setting": "[6]; rats", "result": 91.9}, {"measurement": "Concentration Ratio; Adrenals: Liver", "setting": "[6]; rats", "result": 163.9}, {"measurement": "Concentration Ratio; Adrenals: Muscle", "setting": "[6]; rats", "result": 436.7}, {"measurement": "Concentration Ratio; Adrenals: Ovaries", "setting": "[6]; rats", "result": 4.5}, {"measurement": "Concentration Ratio; Adrenals: Testes", "setting": "[6]; rats", "result": 211.9}, {"measurement": "Concentration Ratio; Adrenals: Blood", "setting": "[6]; rats, 8640 min", "result": 433.1}, {"measurement": "% dose kg/g, Adrenals", "setting": "[7]; [9]", "result": 7.240, "unit": "% dose kg/g"}, {"measurement": "% dose kg/g, Bile", "setting": "[7]; [9]", "result": 0.485, "unit": "% dose kg/g"}, {"measurement": "% dose kg/g, Blood", "setting": "[7]; [9]", "result": 0.066, "unit": "% dose kg/g"}, {"measurement": "% dose kg/g, Kidneys", "setting": "[7]; [9]", "result": 0.175, "unit": "% dose kg/g"}, {"measurement": "% dose kg/g, Liver", "setting": "[7]; [9]", "result": 0.143, "unit": "% dose kg/g"}, {"measurement": "% dose kg/g, Lungs", "setting": "[7]; [9]", "result": 0.164, "unit": "% dose kg/g"}, {"measurement": "% dose kg/g, Muscle", "setting": "[7]; [9]", "result": 0.042, "unit": "% dose kg/g"}, {"measurement": "% dose kg/g, Ovaries", "setting": "[7]; [9]", "result": 1.571, "unit": "% dose kg/g"}, {"measurement": "% dose kg/g, Spleen", "setting": "[7]; [9]", "result": 0.083, "unit": "% dose kg/g"}, {"measurement": "% dose kg/g, adrenal cortex", "setting": "[7]; [9]", "result": 9.925, "unit": "% dose kg/g"}, {"measurement": "% of dose, Adrenals", "setting": "[7]; [9]", "result": "0.622 % of dose"}, {"measurement": "% of dose, Blood", "setting": "[7]; [9]", "result": "5.989 % of dose"}, {"measurement": "% of dose, Kidneys", "setting": "[7]; [9]", "result": "0.712 % of dose"}, {"measurement": "% of dose, Liver", "setting": "[7]; [9]", "result": "3.894 % of dose"}, {"measurement": "% of dose, Lungs", "setting": "[7]; [9]", "result": "1.136 % of dose"}, {"measurement": "% of dose, Ovaries", "setting": "[7]; [9]", "result": "0.303 % of dose"}, {"measurement": "% of dose, Spleen", "setting": "[7]; [9]", "result": "0.528 % of dose"}, {"measurement": "% of dose, Total Faeces", "setting": "[7]; [10]", "result": "27.691 % of dose"}, {"measurement": "% of dose, Total Urine", "setting": "[7]; [10]", "result": "1.953 % of dose"}, {"measurement": "concentration in the adrenal cortex", "setting": "[7]; dogs", "result": "concentrates in the adrenal cortex"}, {"measurement": "quality of adrenal scans compared with 19-iodocholesterol-131I", "setting": "[5]; comparable cases with adrenal cortex adenomas or hyperplasia, smaller dose", "result": "equally good adrenal scans"}, {"measurement": "visualization of adrenal glands and detection of adrenal cortex adenomas", "setting": "[5]; humans", "result": "enabling their visualization and the detection of adrenal cortex adenomas"}, {"measurement": "time after injection at which scans could be taken", "setting": "[5]", "result": "2 to 3", "unit": "days"}, {"measurement": "dose giving equally good adrenal scans", "setting": "[5]", "result": 7, "unit": "μCi/kg"}, {"measurement": "75Se uptake per gram of tissue in the adrenal adenoma", "setting": "[8]; compared with 19-iodocholesterol-131I in five other adrenal cortex adenomas", "result": "higher than that of 19-iodocholesterol-^131 I"}, {"measurement": "concentration in the adrenal glands", "setting": "[8]; humans", "result": "concentrate in the adrenal glands of humans"}, {"measurement": "maximum uptake in the left adrenal region", "setting": "[8]; one patient with Cushing Syndrome, 500μCi intravenous, two weeks of scans", "result": 17, "unit": "μCi"}, {"measurement": "75Se uptake in each of both adrenal regions", "setting": "[8]; other patient with Cushing Syndrome, 500μCi intravenous", "result": 3, "unit": "μCi"}, {"measurement": "75Se contained in removed adrenal cortex adenoma", "setting": "[8]; same patient, adenoma weight 66 g, 500μCi intravenous", "result": 15, "unit": "μCi"}]}, {"compound": "C[75Se]C[C@]12CC[C@H](O)CC1=CC[C@@H]1[C@@H]2CC[C@]2(C)[C@@H]([C@H](C)CCCC(C)C)CC[C@@H]12", "note": "[19-methylselenocholesterol]", "values": [{"measurement": "concentration in / uptake into human adrenal glands", "setting": "[2]", "result": "poor"}, {"measurement": "concentration in the adrenal cortex", "setting": "[2]; human", "result": "appears not to be concentrated in the adrenal cortex"}, {"measurement": "uptake into pheochromocytomas of human adrenal medullary tissue", "setting": "[2]; some instances", "result": "some instances have been cited of its uptake into pheochromocytomas"}, {"measurement": "concentration in rat adrenal tissue", "setting": "[3]", "result": "concentrated strongly in rat adrenal tissue"}]}]}
